Assay results taken from US5622969A, “Method of treating leukotriene caused diseases with N-benzyl dihydroindole LTD4 antagonists” (Eli Lilly and Company, priority 1995, dated 1997).

Tests used:
[1] = molecular target: T1, LTD4 receptor (guinea pig lung membrane) (Cavia porcellus, UniProt Q2NNR5); experiment: Assay 3 - Guinea Pig Lung Membrane [3H] LTD4 Radioligand Binding (GPLM binding); settings: [3H] LTD4, guinea pig lung membrane, 30 min, 30° C., pH 6.5; for Ki: read-out: GPLM binding (pKi) (converted)
T1 construct: guinea-pig lung membrane preparation; from tissue; host or cells: guinea pig lung membranes
T1 sequence (Q2NNR5 1-340): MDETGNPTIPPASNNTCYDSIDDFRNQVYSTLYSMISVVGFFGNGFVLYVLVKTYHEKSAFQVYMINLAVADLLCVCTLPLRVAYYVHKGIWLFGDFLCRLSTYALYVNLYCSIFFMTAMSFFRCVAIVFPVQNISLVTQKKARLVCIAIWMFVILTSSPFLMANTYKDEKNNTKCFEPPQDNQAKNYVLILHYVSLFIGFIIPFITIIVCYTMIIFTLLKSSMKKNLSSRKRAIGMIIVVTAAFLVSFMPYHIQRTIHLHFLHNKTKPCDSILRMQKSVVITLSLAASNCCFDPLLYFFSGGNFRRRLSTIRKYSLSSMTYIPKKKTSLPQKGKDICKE
Method: Assay 3--Guinea Pig Lung Membrane [^3 H] LTD4 Radioligand Binding: [^3 H] LTD4 was purchased from New England Nuclear (Boston, Mass.). All other chemicals were purchased from Sigma (St. Louis, Mo.). Incubations were performed in silanised glass tubes and contained 30 mg of guinea-pig lung membrane preparation (Saussy, et al., Mol. […] The binding reaction was terminated after 30 min. at 30° C. by the addition of 4 ml ice cold wash buffer (25 mM Tris --HCl, pH 7.5), followed immediately by vacuum filtration over Whatman (GF/C glass fibre filters, using a Brandel (Gaithersburg, Md.) 48 place harvester. The tubes and filter were washed 3×4 ml in cold wash buffer. Retained radioactivity was determined by liquid scintillation counting at 50% counting efficiency using Ready Protein Plus cocktail (Beckman, Fullerton, Calif.). Data were analyzed using linear regression analysis of log-logit plots of the values between 10% and 90% of control biding to calculate I[…] and slope factors (pseudo-Hill coefficients). IC50 values were corrected for radioligand concentrations (Cheng and Prusoff, Biochem. Pharmacol. 22:3099-3108, 1973) to calculate Ki values.

[2] = molecular target: T2, LTD4 receptor (intestinal smooth muscle receptors, guinea pig ileum) (Cavia porcellus, UniProt Q2NNR5); experiment: Assay 2 - Guinea Pig Ileum, antagonism of LTD4 contraction; settings: drug added 30 minutes prior, read-out: GP ileum (pKb) (converted)
T2 construct: Terminal ilea were removed from the animals; from tissue; host or cells: guinea pig terminal ileum segments
T2 sequence (Q2NNR5 1-340): T1 sequence (Q2NNR5 1-340)
Method: Assay 2--Guinea Pig Ileum:
Guinea pig ileum was used to determine the potency of novel LTD4 receptor antagonists on intestinal smooth muscle receptors. Terminal ilea were removed from the animals exsanguinated after CO2 asphyxiation and cut into smaller segments of approximately 2 to 3 cm. Tissues were placed in organ baths containing Krebs'bicarbonate solution prepared without indomethacin and 1-cysteine and aerated with 95% O2 and 5% CO2. After a 60 minute equilibration period, 3 submaximal contractions to histamine (3×10^-6 M) were obtained on all tissues. A cumulative concentration-response curve to LTD4 was then generated using the method of Van Rossum (Arch. Int. Pharmacodyn. Ther. 143:299, 1963). Agonist was washed from the baths and the tissues permitted to recover. After a second LTD4 concentration-response curve was produced, the ilea were washed once again and permitted to re-equilibrate. Experimental drug was added to the baths 30 minutes prior to a final LTD4 concentration-response curve.
(§1) The contractions of trachea and ilea to LTD4 in the presence of the drug was compared to responses in the absence of drug. KB values were calculated by the method of Furchgott (Ann. N.Y. Acad. Sci., 139:553, 1967) using the following equation: KB =[Antagonist]/Dose-Ratio-1.

[3] = molecular target: T3, leukotriene receptor (guinea pig trachea) (Cavia porcellus, UniProt Q2NNR5); experiment: Assay 1 - Guinea Pig Tracheae, leukotriene receptor antagonism (LTD4 contraction); settings: antagonist added 45 minutes prior, read-out: GP trach (pKb) (converted)
T3 construct: Trachea were cut into ring segments and the epithelium removed; from tissue; host or cells: guinea pig tracheal rings, epithelium removed (male Hartley)
T3 sequence (Q2NNR5 1-340): T1 sequence (Q2NNR5 1-340)
Method: Assay 1--Guinea Pig Tracheae
Leukotriene receptor antagonism was evaluated in isolated smooth muscles by the following procedure:
Male Hartley guinea pigs weighing 250-400 grams were asphyxiated with CO2 and exsanguinated. Trachea were excised and placed in Krebs'-bicarbonate solution of the following composition in mM/liter: NaCl, 118.2; NaHCO3, 24.8; KCl, 4.6; KH2 PO4, 1.2, MgSO4.7H2 O, 1.2; dextrose, 10.0; CaCl2.2H2 O, 2.5; 1-cysteine, 3.0, and indomethacin, 3 μM. Trachea were cut into ring segments and the epithelium removed by gently rubbing the luminal surface with a cotton swab. Tracheal rings were placed on supports constructed from two 1 inch 30 gauge disposable stainless steel hypodermic needles (Hooker, et al., 1977, Blood Vessels 14:1-11), and transferred to organ baths containing Krebs' solution maintained at 37° C. and aerated with 95% O2 and 5% CO2. Isometric measurements were made with a Grass FTO3C force-displacement transducer and recorded on a Grass polygraph as changes in grams of force. After approximately 60 minutes of equilibration, a single submaximal concentration of LTD4 (3×10^-8 M) was used to contract the trachea. Two LTD4 concentration-response curves were then generated using the cumulative response technique of Van Rossum (1963). A potential leukotriene receptor antagonist was added to the tissue bath 45 minutes prior to generation of the second LTD4 concentration-response curve.
as §1

Compound | GPLM binding (pKi) [1] | Kb [2] [nM] | Kb [3] [nM] | Ki [1] [nM]
Clc1ccc2ccc(/C=C/c3cccc(CN4CCc5cccc(CCc6nnn[nH]6)c54)c3)nc2c1 [Example 4, 5-[2-[1-[3-[2-E-(7-Chloroquinolin-2-yl)ethenyl]benzyl]-2,3-dihydroindol-7-yl]ethyl]-1H-tetrazole] | 8.3 | 2.34 | 28.8 | –
Clc1ccc2ccc(COc3cccc(CN4CCc5cccc(CCc6nnn[nH]6)c54)c3)nc2c1 [Example 5, 5-[2-[1-[3-(7-Chloroquinolin-2-ylmethoxy)benzyl]-2,3-dihydroindol-7-yl]-ethyl]-1H-tetrazole] | 8.0 | 3.89 | 8.32 | –
Clc1ccc2ccc(COc3ccc(CN4CCc5cccc(CCc6nnn[nH]6)c54)cc3)nc2c1 [Example 6, 5-[2-[1-[4-(7-Chloroquinolin-2-ylmethoxy)benzyl]-2,3-dihydroindol-7-yl]-ethyl]-1H-tetrazole] | 7.6 | 3.24 | 25.7 | –
c1cc(CN2CCc3cccc(CCc4nnn[nH]4)c32)cc(OCc2ccc3ccccc3n2)c1 [Example 7, 5-[2-[1-[3-(Quinolin-2-ylmethoxy)benzyl]-2,3-dihydroindol-7-yl]-ethyl]-1H-tetrazole] | 7.3 | 11.2 | 15.8 | –

The next lines start with the values.

GPLM binding (pKi) [1] | Kb [2] [nM] | Kb [3] [nM] | Ki [1] [nM] | Compound
7.8 | 2.51 | – | – | C(=C\c1ccc2ccccc2n1)/c1cccc(CN2CCc3cccc(CCc4nnn[nH]4)c32)c1 [Example 9, 5-[2-[1-[3-[2-E-(Quinolin-2-yl)ethenyl]benzyl]-2,3-dihydroindol-7-yl]ethyl]-1H-tetrazole]
– | – | – | 2.45 | Clc1ccc2ccc(/C=C/c3cccc(CN4CCc5cccc(OCc6nn[nH]n6)c54)c3)nc2c1 [Example 10, 5-[1-[3-[2-E-(7-Chloroquinolin-2-yl)ethenyl]benzyl]-2,3-dihydroindol-7-yloxymethyl]-1H-tetrazole]
– | – | – | 2.34 | Clc1ccc2ccc(/C=C/c3ccc(CN4CCc5cccc(CCc6nnn[nH]6)c54)cc3)nc2c1 [Example 11, 5-[2-[1-[4-[2-E-(7-Chloroquinolin-2-yl)ethenyl]benzyl]-2,3-dihydroindol-7-yl]-ethyl]-1H-tetrazole]
